Data as given in ChEMBL document CHEMBL1144805, “The cephalostatin way of apoptosis” (2008).

Tests used:
CCRF-CEM = test: Cytotoxicity against human CCRF-CEM cells; format: functional
EKVX = test: Cytotoxicity against human EKVX cells; format: functional
HOP-18 = test: Cytotoxicity against human HOP18 cells; format: functional
HOP-62 = test: Cytotoxicity against human HOP62 cells; format: functional
HOP-92 = test: Cytotoxicity against human HOP92 cells; format: functional
NCI-H226 = test: Cytotoxicity against human NCI-H226 cells; format: functional
NCI-H23 = test: Cytotoxicity against human NCI-H23 cells; format: functional
NCI-H322M = test: Cytotoxicity against human NCI-H322M cells; format: functional
NCI-H460 = test: Cytotoxicity against human NCI-H460 cells; format: functional
NCI-H522 = test: Cytotoxicity against human NCI-H522 cells; format: functional
[1] = Cytotoxicity against human LXFL529 cells; format: functional; conditions: LXFL 529
[2] = Cytotoxicity against human DMS144 cells; format: functional
DMS-273 = test: Cytotoxicity against human DMS273 cells; format: functional
COLO 205 = test: Cytotoxicity against human COLO205 cells; format: functional
DLD-1 = test: Cytotoxicity against human DLD1 cells; format: functional
[3] = Cytotoxicity against human HCC2996 cells; format: functional
HCT-116 = test: Cytotoxicity against human HCT116 cells; format: functional
HCT-15 = test: Cytotoxicity against human HCT15 cells; format: functional
HT-29 = test: Cytotoxicity against human HT29 cells; format: functional
KM12 = test: Cytotoxicity against human KM12 cells; format: functional
KM-20L2 = test: Cytotoxicity against human KM20L2 cells; format: functional
SW-620 = test: Cytotoxicity against human SW620 cells; format: functional
SF-268 = test: Cytotoxicity against human SF268 cells; format: functional
SF-295 = test: Cytotoxicity against human SF295 cells; format: functional
SF-539 = test: Cytotoxicity against human SF539 cells; format: functional
SNB-19 = test: Cytotoxicity against human SNB19 cells; format: functional
SNB-75 = test: Cytotoxicity against human SNB75 cells; format: functional
SNB-78 = test: Cytotoxicity against human SNB78 cells; format: functional
U-251 = test: Cytotoxicity against human U251 cells; format: functional
XF498 = test: Cytotoxicity against human XF498 cells; format: functional
LOX IMVI = test: Cytotoxicity against human LOXIMVI cells; format: functional
M14 = test: Cytotoxicity against human M14 cells; format: functional
M19-MEL = test: Cytotoxicity against human M19-MEL cells; format: functional
SK-MEL-2 = test: Cytotoxicity against human SK-MEL-2 cells; format: functional
SK-MEL-28 = test: Cytotoxicity against human SK-MEL-28 cells; format: functional
SK-MEL-5 = test: Cytotoxicity against human SK-MEL-5 cells; format: functional
UACC-257 = test: Cytotoxicity against human UACC257 cells; format: functional
UACC-62 = test: Cytotoxicity against human UACC62 cells; format: functional
IGROV-1 = test: Cytotoxicity against human IGROV1 cells; format: functional
OVCAR-3 = test: Cytotoxicity against human OVCAR-3 cells; format: functional
OVCAR-4 = test: Cytotoxicity against human OVCAR4 cells; format: functional
OVCAR-5 = test: Cytotoxicity against human OVCAR5 cells; format: functional
OVCAR-8 = test: Cytotoxicity against human OVCAR8 cells; format: functional
SK-OV-3 = test: Cytotoxicity against human SK-OV-3 cells; format: functional
[4] = Cytotoxicity against human […] cells; format: functional
ACHN = test: Cytotoxicity against human ACHN cells; format: functional
CAKI-1 = test: Cytotoxicity against human CAKI1 cells; format: functional
RXF 393 = test: Cytotoxicity against human RXF393 cells; format: functional
SN12C = test: Cytotoxicity against human SN12C cells; format: functional
[5] = Cytotoxicity against human TK20 cells; format: functional
UO-31 = test: Cytotoxicity against human UO31 cells; format: functional
SR = test: Cytotoxicity against human SR cells; format: functional
A549 = test: Cytotoxicity against human A549 cells; format: functional
MOLT-4 = test: Cytotoxicity against human MOLT4 cells; format: functional
RPMI-8226 = test: Cytotoxicity against human RPMI8226 cells; format: functional
[6] = Cytotoxicity against human HL60(TB) cells; format: functional, HL-60(TB); conditions: HL-60
Malme-3M = test: Cytotoxicity against human MALME3M cells; format: functional
[7] = Cytotoxicity against human 786-O cells; format: functional; conditions: 786-0

Q: With `C[C@@H]1[C@]2(O[C@H]3C=C4[C@@H]5CC[C@H]6Cc7nc8c(nc7C[C@]6(C)[C@H]5C[C@@H](O)[C@]4(C)[C@]31O)C[C@@H]1CC[C@H]3C4=CC[C@@H]5[C@H](C)[C@@]6(OC[C@]45C(=O)C[C@]3(O)[C@@]1(C)C8)OC(C)(C)C[C@H]6O)O[C@](C)(CO)C[C@H]2O` [CEPHALOSTATIN 2] as the molecule, how does the GI50 (CCRF-CEM) read?
A: The GI50 was 0.126 nM.

Q: What about the GI50 (EKVX) of the same molecule?
A: Its GI50 is 6.17 nM.

Q: And the GI50 (HOP-18)?
A: Its GI50 is 14.4 nM.

Q: What about the GI50 (HOP-62) of the same molecule?
A: The GI50 was 0.105 nM.

Q: What about the GI50 (HOP-92) of the same molecule?
A: Its GI50 is 0.105 nM.

Q: What about the GI50 (NCI-H226) of the same molecule?
A: The GI50 was 0.141 nM.

Q: And the GI50 (NCI-H23)?
A: The GI50 was 0.708 nM.

Q: What about the GI50 (NCI-H322M) of the same molecule?
A: The GI50 was 28.2 nM.

Q: What about the GI50 (NCI-H460) of the same molecule?
A: Its GI50 is 0.126 nM.

Q: What about the GI50 (NCI-H522) of the same molecule?
A: The GI50 was 0.794 nM.

Q: What about the GI50 [1] of the same molecule?
A: Its GI50 is 0.138 nM.

Q: And the GI50 [2]?
A: Its GI50 is 0.11 nM.

Q: And the GI50 (DMS-273)?
A: Its GI50 is 0.1 nM.

Q: What about the GI50 (COLO 205) of the same molecule?
A: The GI50 was 0.617 nM.

Q: What about the GI50 (DLD-1) of the same molecule?
A: Its GI50 is 70.8 nM.

Q: And the GI50 [3]?
A: Its GI50 is 74.1 nM.

Q: What about the GI50 (HCT-116) of the same molecule?
A: Its GI50 is 0.295 nM.

Q: What about the GI50 (HCT-15) of the same molecule?
A: Its GI50 is 2.34 nM.

Q: What about the GI50 (HT-29) of the same molecule?
A: The GI50 was 0.912 nM.

Q: What about the GI50 (KM12) of the same molecule?
A: The GI50 was 0.371 nM.

Q: And the GI50 (KM-20L2)?
A: Its GI50 is 0.661 nM.

Q: And the GI50 (SW-620)?
A: Its GI50 is 0.174 nM.

Q: What about the GI50 (SF-268) of the same molecule?
A: The GI50 was 0.195 nM.

Q: What about the GI50 (SF-295) of the same molecule?
A: Its GI50 is 0.1 nM.

Q: And the GI50 (SF-539)?
A: The GI50 was 0.1 nM.

Q: What about the GI50 (SNB-19) of the same molecule?
A: Its GI50 is 2.4 nM.

Q: And the GI50 (SNB-75)?
A: Its GI50 is 0.1 nM.

Q: And the GI50 (SNB-78)?
A: The GI50 was 0.251 nM.

Q: And the GI50 (U-251)?
A: The GI50 was 0.112 nM.

Q: And the GI50 (XF498)?
A: The GI50 was 0.1 nM.

Q: And the GI50 (LOX IMVI)?
A: The GI50 was 0.151 nM.

Q: And the GI50 (M14)?
A: The GI50 was 0.219 nM.

Q: What about the GI50 (M19-MEL) of the same molecule?
A: Its GI50 is 331 nM.

Q: And the GI50 (SK-MEL-2)?
A: The GI50 was 0.288 nM.

Q: What about the GI50 (SK-MEL-28) of the same molecule?
A: The GI50 was 0.234 nM.

Q: And the GI50 (SK-MEL-5)?
A: Its GI50 is 0.724 nM.

Q: And the GI50 (UACC-257)?
A: Its GI50 is 0.912 nM.

Q: And the GI50 (UACC-62)?
A: The GI50 was 0.141 nM.

Q: And the GI50 (IGROV-1)?
A: Its GI50 is 2.57 nM.

Q: And the GI50 (OVCAR-3)?
A: Its GI50 is 347 nM.

Q: What about the GI50 (OVCAR-4) of the same molecule?
A: Its GI50 is 17 nM.

Q: What about the GI50 (OVCAR-5) of the same molecule?
A: Its GI50 is 14.1 nM.

Q: And the GI50 (OVCAR-8)?
A: The GI50 was 200 nM.

Q: And the GI50 (SK-OV-3)?
A: The GI50 was 0.457 nM.

Q: And the GI50 [4]?
A: The GI50 was 0.339 nM.

Q: What about the GI50 (ACHN) of the same molecule?
A: The GI50 was 2.57 nM.

Q: What about the GI50 (CAKI-1) of the same molecule?
A: Its GI50 is 0.575 nM.

Q: And the GI50 (RXF 393)?
A: The GI50 was 0.1 nM.

Q: What about the GI50 (SN12C) of the same molecule?
A: Its GI50 is 105 nM.

Q: What about the GI50 [5] of the same molecule?
A: The GI50 was 20.4 nM.

Q: What about the GI50 (UO-31) of the same molecule?
A: Its GI50 is 1.18 nM.

Q: And the GI50 (SR)?
A: Its GI50 is 0.135 nM.

Q: What about the GI50 (A549) of the same molecule?
A: Its GI50 is 0.295 nM.

Q: What about the GI50 (MOLT-4) of the same molecule?
A: The GI50 was 0.12 nM.

Q: What about the GI50 (RPMI-8226) of the same molecule?
A: Its GI50 is 0.1 nM.

Q: And the GI50 [6]?
A: Its GI50 is 0.1 nM.

Q: And the GI50 (Malme-3M)?
A: The GI50 was 2.95 nM.

Q: What about the GI50 [7] of the same molecule?
A: The GI50 was 0.141 nM.
